Test results reported in ChEMBL document CHEMBL1201862, “PubChem BioAssay data set” (2004).
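Following 48 hours of exposure in 96-well plates, responses at five concentrations were used to interpolate endpoints linearly. Here, GI50 denotes the concentration required for 50% inhibition of growth.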 Activity calls are given as the source filed them. No stated cut-off is given here; in the data, active = GI50 up to about 1.1 µM and inactive = higher.

What was measured:
Assay in all cases: growth of human tumour cells (NCI), 48 h
[1] = system: 786-0
[2] = system: A498
[3] = system: A549
[4] = system: ACHN
[5] = system: BT-549
[6] = system: CAKI-1
[7] = system: COLO 205
[8] = system: DU-145
[9] = system: EKVX
[10] = system: HCC 2998
[11] = system: HCT-116
[12] = system: HCT-15
[13] = system: HL-60
[14] = system: HOP-62
[15] = system: HOP-92
[16] = system: HT-29
[17] = system: Hs-578T
[18] = system: IGROV-1
[19] = system: K562
[20] = system: KM12
[21] = system: LOX IMVI
[22] = system: M14
[23] = system: MCF7
[24] = system: MDA-MB-231
[25] = system: MDA-MB-435
[26] = system: MDA-N
[27] = system: MOLT-4
[28] = system: Malme-3M
[29] = system: NCI-H226
[30] = system: NCI-H460
[31] = system: NCI-H522
[32] = system: NCI/ADR-RES
[33] = system: OVCAR-3
[34] = system: OVCAR-4
[35] = system: OVCAR-5
[36] = system: OVCAR-8
[37] = system: PC-3
[38] = system: RXF 393
[39] = system: SF-268
[40] = system: SF-295
[41] = system: SK-MEL-28
[42] = system: SK-MEL-2
[43] = system: SK-MEL-5
[44] = system: SK-OV-3
[45] = system: SN12C
[46] = system: SNB-19
[47] = system: SNB-75
[48] = system: SR
[49] = system: SW-620
[50] = system: T47D
[51] = system: TK-10
[52] = system: U-251
[53] = system: UACC-257
[54] = system: UACC-62
[55] = system: UO-31
[56] = system: CCRF-CEM
[57] = system: NCI-H23
[58] = system: RPMI-8226
[59] = system: SF-539

Compound: COC(=O)[C@H](Cc1c[nH]c2ccccc12)NC(=O)c1ccccc1I
- GI50 [1]: 16.1 µM (inactive)
- GI50 [2]: 18.5 µM (inactive)
- GI50 [3]: > 100 µM (inactive)
- GI50 [4]: 17.1 µM (inactive)
- GI50 [5]: > 100 µM (inactive)
- GI50 [6]: 20.7 µM (inactive)
- GI50 [7]: 17.5 µM (inactive)
- GI50 [8]: 21.8 µM (inactive)
- GI50 [9]: > 100 µM (inactive)
- GI50 [10]: 26.4 µM (inactive)
- GI50 [11]: 16.3 µM (inactive)
- GI50 [12]: > 100 µM
- GI50 [13]: 24.9 µM (inactive)
- GI50 [14]: 30.5 µM (inactive)
- GI50 [15]: 16.9 µM (inactive)
- GI50 [16]: 23.7 µM (inactive)
- GI50 [17]: 9.84 µM (inactive)
- GI50 [18]: 31.8 µM (inactive)
- GI50 [19]: 29.3 µM (inactive)
- GI50 [20]: 41.4 µM (inactive)
- GI50 [21]: 19.7 µM (inactive)
- GI50 [22]: 15.7 µM (inactive)
- GI50 [23]: 37.8 µM (inactive)
- GI50 [24]: 29.1 µM (inactive)
- GI50 [25]: 25.4 µM (inactive)
- GI50 [26]: 8.41 µM (inactive)
- GI50 [27]: 17.5 µM (inactive)
- GI50 [28]: 18.7 µM (inactive)
- GI50 [29]: 26.8 µM (inactive)
- GI50 [30]: 24.8 µM (inactive)
- GI50 [31]: 15.6 µM (inactive)
- GI50 [32]: 32.1 µM (inactive)
- GI50 [33]: 13.6 µM (inactive)
- GI50 [34]: 30 µM (inactive)
- GI50 [35]: > 100 µM (inactive)
- GI50 [36]: 31.7 µM (inactive)
- GI50 [37]: 24.6 µM (inactive)
- GI50 [38]: 18.7 µM (inactive)
- GI50 [39]: 19.8 µM (inactive)
- GI50 [40]: 42.4 µM (inactive)
- GI50 [41]: 89.3 µM (inactive)
- GI50 [42]: 19.9 µM (inactive)
- GI50 [43]: 16.1 µM (inactive)
- GI50 [44]: 33.6 µM (inactive)
- GI50 [45]: > 100 µM (inactive)
- GI50 [46]: > 100 µM (inactive)
- GI50 [47]: 11.8 µM (inactive)
- GI50 [48]: 24.2 µM (inactive)
- GI50 [49]: 31.5 µM (inactive)
- GI50 [50]: 22.6 µM (inactive)
- GI50 [51]: 24.4 µM (inactive)
- GI50 [52]: 31 µM (inactive)
- GI50 [53]: 18.8 µM (inactive)
- GI50 [54]: 18.2 µM (inactive)
- GI50 [55]: 19.3 µM (inactive)

Compound: CCOc1cc(C2CC(c3ccc(NS(=O)(=O)c4cc([N+](=O)[O-])ccc4C)cc3)=NN2S(=O)(=O)c2cc([N+](=O)[O-])ccc2C)ccc1O (stereo not given)
- GI50 [1]: 33.3 µM (inactive)
- GI50 [2]: 2.44 µM (inactive)
- GI50 [3]: 32.4 µM (inactive)
- GI50 [4]: 39.6 µM (inactive)
- GI50 [5]: 39.4 µM (inactive)
- GI50 [6]: 42.9 µM (inactive)
- GI50 [56]: 33 µM (inactive)
- GI50 [7]: 37.4 µM (inactive)
- GI50 [8]: 43.8 µM (inactive)
- GI50 [9]: 22.1 µM (inactive)
- GI50 [11]: 36.5 µM (inactive)
- GI50 [12]: 39 µM
- GI50 [13]: 38.5 µM (inactive)
- GI50 [14]: 30.8 µM (inactive)
- GI50 [15]: 17.5 µM (inactive)
- GI50 [16]: 49.3 µM (inactive)
- GI50 [17]: 42.4 µM (inactive)
- GI50 [18]: 18.5 µM (inactive)
- GI50 [19]: 35.1 µM (inactive)
- GI50 [20]: 41.1 µM (inactive)
- GI50 [21]: 40.1 µM (inactive)
- GI50 [22]: 34.1 µM (inactive)
- GI50 [23]: 31.9 µM (inactive)
- GI50 [24]: 32.1 µM (inactive)
- GI50 [25]: 38.4 µM (inactive)
- GI50 [26]: 43.3 µM (inactive)
- GI50 [27]: 30.4 µM (inactive)
- GI50 [28]: 23.3 µM (inactive)
- GI50 [29]: 31.6 µM (inactive)
- GI50 [57]: 30.6 µM (inactive)
- GI50 [31]: 22.9 µM (inactive)
- GI50 [32]: 39.4 µM (inactive)
- GI50 [33]: 23.4 µM (inactive)
- GI50 [34]: 38.6 µM (inactive)
- GI50 [35]: > 100 µM (inactive)
- GI50 [36]: 42.8 µM (inactive)
- GI50 [37]: 32.7 µM (inactive)
- GI50 [58]: 34.3 µM (inactive)
- GI50 [38]: 29 µM (inactive)
- GI50 [39]: 39.7 µM (inactive)
- GI50 [40]: 31.9 µM (inactive)
- GI50 [59]: 33.7 µM (inactive)
- GI50 [41]: 83 µM (inactive)
- GI50 [42]: 22.6 µM (inactive)
- GI50 [43]: 18.5 µM (inactive)
- GI50 [44]: 39.9 µM (inactive)
- GI50 [45]: 28.4 µM (inactive)
- GI50 [46]: 43.6 µM (inactive)
- GI50 [48]: 32.4 µM (inactive)
- GI50 [49]: 64.7 µM (inactive)
- GI50 [50]: 19.8 µM (inactive)
- GI50 [51]: 36.4 µM (inactive)
- GI50 [52]: 30.7 µM (inactive)
- GI50 [53]: 32.7 µM (inactive)
- GI50 [55]: 32.6 µM (inactive)

Compound: CCN(CC)CCCNc1ccc([N+](=O)[O-])c2nc3ccccc3c(N)c12
- GI50 [1]: 0.445 µM (active)
- GI50 [2]: 2.32 µM (inactive)
- GI50 [3]: 0.537 µM (active)
- GI50 [4]: 0.324 µM (active)
- GI50 [5]: 1.4 µM (inactive)
- GI50 [6]: 4.32 µM (inactive)
- GI50 [56]: 0.45 µM (active)
- GI50 [8]: 1.05 µM (active)
- GI50 [9]: 1.01 µM (active)
- GI50 [11]: 0.544 µM (active)
- GI50 [12]: 0.883 µM
- GI50 [13]: 0.514 µM (active)
- GI50 [14]: 5.56 µM (inactive)
- GI50 [15]: 1.43 µM (inactive)
- GI50 [16]: 0.437 µM (active)
- GI50 [17]: 0.257 µM (active)
- GI50 [18]: 0.622 µM (active)
- GI50 [19]: 0.478 µM (active)
- GI50 [20]: 0.392 µM (active)
- GI50 [21]: 0.482 µM (active)
- GI50 [22]: 1.08 µM (active)
- GI50 [23]: 0.402 µM (active)
- GI50 [24]: 0.442 µM (active)
- GI50 [25]: 1.06 µM (active)
- GI50 [26]: 0.492 µM (active)
- GI50 [27]: 0.302 µM (active)
- GI50 [28]: 2.48 µM (inactive)
- GI50 [29]: 2.67 µM (inactive)
- GI50 [57]: 0.828 µM (active)
- GI50 [30]: 0.379 µM (active)
- GI50 [32]: 0.668 µM (active)
- GI50 [33]: 1.55 µM (inactive)
- GI50 [34]: 0.627 µM (active)
- GI50 [35]: 0.802 µM (active)
- GI50 [36]: 0.65 µM (active)
- GI50 [37]: 0.804 µM (active)
- GI50 [58]: 0.555 µM (active)
- GI50 [38]: 0.37 µM (active)
- GI50 [39]: 1.23 µM (inactive)
- GI50 [40]: 0.581 µM (active)
- GI50 [59]: 0.495 µM (active)
- GI50 [41]: 3.98 µM (inactive)
- GI50 [42]: 1.14 µM (inactive)
- GI50 [43]: 0.241 µM (active)
- GI50 [44]: 1.51 µM (inactive)
- GI50 [45]: 0.74 µM (active)
- GI50 [46]: 0.929 µM (active)
- GI50 [47]: 1.19 µM (inactive)
- GI50 [48]: 0.512 µM (active)
- GI50 [49]: 0.365 µM (active)
- GI50 [50]: 0.867 µM (active)
- GI50 [51]: 2.12 µM (inactive)
- GI50 [53]: 4.88 µM (inactive)
- GI50 [54]: 2.75 µM (inactive)
- GI50 [55]: 1.57 µM (inactive)
